# In PubChem BioAssay AID180 (DTP/NCI, 2004):
# Where “and” joins values, the source holds several entries; their conditions need not be identical. Equal values may be shown once.
# System: BDF1 mice, Adenocarcinoma 755 s.c., tumor weight T/C
# Test: NCI In Vivo Anticancer Drug Screen. Data for tumor model Adenocarcinoma 755 (subcutaneous) in B6D2F1 (BDF1) mice
# Settings: endpoint: mean tumor weight, higher = larger tumour
# Procedure, shortened: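 In vivo antitumor screen on a transplantable tumor line. Result equals the measure in compound-treated animals divided by the same measure in vehicle controls.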
# [1] = dose: 15.0 mg/kg/injection, schedule: Q01DX011 (ip), vehicle: methylcellulose (MC)
# [2] = dose: 31.0 mg/kg/injection, schedule: Q01DX011 (ip), vehicle: methylcellulose (MC)
# [3] = dose: 62.0 mg/kg/injection, schedule: Q01DX011 (ip), vehicle: methylcellulose (MC)
# [4] = dose: 8.0 mg/kg/injection, schedule: Q01DX011 (ip), vehicle: carboxymethylcellulose (CMC)
compound,measurement,setting,value
Cc1ccc(Nc2nc(N)nc(C)c2Br)cc1,T/C,[1],98 % of control
same,T/C,[2],95 % of control
same,T/C,[3],82 % of control
same,T/C,"dose: 125.0 mg/kg/injection, schedule: Q01DX011 (ip), vehicle: methylcellulose (MC)",70 % of control
same,T/C,"dose: 250.0 mg/kg/injection, schedule: Q01DX011 (ip), vehicle: methylcellulose (MC)",83 % of control
NNC(=O)CCC(N)C(=O)O (stereo not given),T/C,"dose: 10.21 mg/kg/injection, schedule: Q01DX011 (ip), vehicle: carboxymethylcellulose (CMC)",121 % of control
same,T/C,"dose: 13.0 mg/kg/injection, schedule: Q01DX011 (ip), vehicle: carboxymethylcellulose (CMC)",91 % of control
same,T/C,"dose: 20.42 mg/kg/injection, schedule: Q01DX011 (ip), vehicle: carboxymethylcellulose (CMC)",96 % of control
same,T/C,"dose: 26.0 mg/kg/injection, schedule: Q01DX011 (ip), vehicle: carboxymethylcellulose (CMC)",60 % of control
same,T/C,"dose: 40.85 mg/kg/injection, schedule: Q01DX011 (ip), vehicle: carboxymethylcellulose (CMC)",151 % of control
same,T/C,"dose: 43.05 mg/kg/injection, schedule: Q01DX011 (ip), vehicle: carboxymethylcellulose (CMC)",97 % of control
same,T/C,"dose: 52.0 mg/kg/injection, schedule: Q01DX011 (ip), vehicle: carboxymethylcellulose (CMC)",70 % of control
same,T/C,"dose: 81.7 mg/kg/injection, schedule: Q01DX011 (ip), vehicle: carboxymethylcellulose (CMC)",67 % of control
same,T/C,"dose: 86.1 mg/kg/injection, schedule: Q01DX011 (ip), vehicle: carboxymethylcellulose (CMC)",98 % of control
same,T/C,"dose: 104.0 mg/kg/injection, schedule: Q01DX011 (ip), vehicle: carboxymethylcellulose (CMC)",56 % of control
Cc1cccc(CSc2ncnc3nc[nH]c23)n1,T/C,"dose: 12.5 mg/kg/injection, schedule: Q01DX011 (ip), vehicle: methylcellulose (MC)",66 % of control
same,T/C,"dose: 25.0 mg/kg/injection, schedule: Q01DX011 (ip), vehicle: methylcellulose (MC)",51 % of control
same,T/C,"dose: 50.0 mg/kg/injection, schedule: Q01DX011 (ip), vehicle: methylcellulose (MC)",17 % of control
same,T/C,"dose: 100.0 mg/kg/injection, schedule: Q01DX011 (ip), vehicle: methylcellulose (MC)",6 % of control
O=C(Nc1ccc(C2=NCCCN2)cc1)c1ccc(NC(=O)c2ccc(C3=NCCCN3)cc2)cc1,T/C,"dose: 2.0 mg/kg/injection, schedule: Q01DX011 (ip), vehicle: carboxymethylcellulose (CMC)",89 % of control
same,T/C,"dose: 4.0 mg/kg/injection, schedule: Q01DX011 (ip), vehicle: carboxymethylcellulose (CMC)",63 % of control
same,T/C,[4],53 % of control
NC(=O)c1ccccc1Nc1ccc([N+](=O)[O-])cc1[N+](=O)[O-],T/C,"dose: 34.0 mg/kg/injection, schedule: Q01DX011 (ip), vehicle: carboxymethylcellulose (CMC)",102 % of control
same,T/C,"dose: 100.0 mg/kg/injection, schedule: Q01DX011 (ip), vehicle: carboxymethylcellulose (CMC)",115 % of control
O=C(Nc1ccc(C2=NCCN2)cc1)c1ccc(C(=O)Nc2ccc(C3=NCCN3)cc2)cc1,T/C,"dose: 3.3 mg/kg/injection, schedule: Q01DX011 (ip), vehicle: methylcellulose (MC)",122 % of control
same,T/C,"dose: 6.5 mg/kg/injection, schedule: Q01DX011 (ip), vehicle: methylcellulose (MC)",113 % of control
C=CC(CN1CC1)OC(C)=O (stereo not given),T/C,"dose: 0.25 mg/kg/injection, schedule: Q01DX011 (sc), vehicle: saline",97 % of control
same,T/C,"dose: 0.5 mg/kg/injection, schedule: Q01DX010 (oral), vehicle: saline",28 % of control
same,T/C,"dose: 0.5 mg/kg/injection, schedule: Q01DX011 (ip), vehicle: methylcellulose (MC)",62 % of control
same,T/C,"dose: 0.5 mg/kg/injection, schedule: Q01DX011 (sc), vehicle: saline",94 % of control
same,T/C,"dose: 1.0 mg/kg/injection, schedule: Q01DX006 (iv), vehicle: saline",63 % of control
same,T/C,"dose: 1.0 mg/kg/injection, schedule: Q01DX010 (oral), vehicle: saline",21 % of control
same,T/C,"dose: 1.0 mg/kg/injection, schedule: Q01DX011 (ip), vehicle: methylcellulose (MC)",49 % of control
same,T/C,"dose: 1.0 mg/kg/injection, schedule: Q01DX011 (sc), vehicle: saline",83 % of control
same,T/C,"dose: 1.0 mg/kg/injection, schedule: Q02DX004 (im), vehicle: saline",93 % of control
same,T/C,"dose: 1.24 mg/kg/injection, schedule: Q01DX011 (ip), vehicle: carboxymethylcellulose (CMC)",202 % of control
same,T/C,"dose: 1.6 mg/kg/injection, schedule: Q01DX011 (ip), vehicle: carboxymethylcellulose (CMC)",36 % of control
same,T/C,"dose: 1.69 mg/kg/injection, schedule: Q01DX011 (ip), vehicle: carboxymethylcellulose (CMC)",81 % of control
same,T/C,"dose: 1.81 mg/kg/injection, schedule: Q01DX011 (ip), vehicle: carboxymethylcellulose (CMC)",76 % of control
same,T/C,"dose: 2.0 mg/kg/injection, schedule: Q01DX006 (iv), vehicle: saline",66 % of control
same,T/C,"dose: 2.0 mg/kg/injection, schedule: Q01DX010 (oral), vehicle: saline",9 % of control
same,T/C,"dose: 2.0 mg/kg/injection, schedule: Q01DX011 (sc), vehicle: saline",47 % of control
same,T/C,"dose: 2.0 mg/kg/injection, schedule: Q02DX004 (im), vehicle: saline",68 % of control
same,T/C,"dose: 2.48 mg/kg/injection, schedule: Q01DX011 (ip), vehicle: carboxymethylcellulose (CMC)",79 % of control
same,T/C,"dose: 2.7 mg/kg/injection, schedule: Q01DX011 (ip), vehicle: carboxymethylcellulose (CMC)",33 % of control
same,T/C,"dose: 3.2 mg/kg/injection, schedule: Q01DX011 (ip), vehicle: carboxymethylcellulose (CMC)",77 % of control
same,T/C,"dose: 3.25 mg/kg/injection, schedule: Q01DX011 (oral), vehicle: saline",50 % of control
same,T/C,"dose: 3.63 mg/kg/injection, schedule: Q01DX011 (ip), vehicle: carboxymethylcellulose (CMC)",51 % of control
same,T/C,"dose: 3.96 mg/kg/injection, schedule: Q01DX011 (ip), vehicle: carboxymethylcellulose (CMC)",29 % of control and 45 % of control
same,T/C,"dose: 4.0 mg/kg/injection, schedule: Q01DX006 (iv), vehicle: saline",38 % of control
same,T/C,"dose: 4.0 mg/kg/injection, schedule: Q01DX010 (oral), vehicle: saline",7 % of control
same,T/C,"dose: 4.0 mg/kg/injection, schedule: Q01DX011 (sc), vehicle: saline",19 % of control and 40 % of control
same,T/C,"dose: 4.0 mg/kg/injection, schedule: Q02DX004 (im), vehicle: saline",57 % of control
same,T/C,"dose: 6.0 mg/kg/injection, schedule: Q01DX011 (ip), vehicle: carboxymethylcellulose (CMC)",26 % of control
same,T/C,"dose: 6.4 mg/kg/injection, schedule: Q01DX011 (ip), vehicle: carboxymethylcellulose (CMC)",26 % of control
same,T/C,"dose: 6.6 mg/kg/injection, schedule: Q01DX011 (ip), vehicle: carboxymethylcellulose (CMC)",7 % of control and 19 % of control
same,T/C,"dose: 6.75 mg/kg/injection, schedule: Q01DX011 (ip), vehicle: carboxymethylcellulose (CMC)",21 % of control
same,T/C,"dose: 7.25 mg/kg/injection, schedule: Q01DX011 (ip), vehicle: carboxymethylcellulose (CMC)",10 % of control
same,T/C,"dose: 7.5 mg/kg/injection, schedule: Q01DX011 (ip), vehicle: saline",2 % of control and 8 % of control
same,T/C,"dose: 7.5 mg/kg/injection, schedule: Q01DX011 (oral), vehicle: saline",19 % of control
same,T/C,"dose: 8.0 mg/kg/injection, schedule: Q01DX006 (iv), vehicle: saline",16 % of control
same,T/C,[4],14 % of control
same,T/C,"dose: 8.0 mg/kg/injection, schedule: Q01DX011 (sc), vehicle: saline",9 % of control
same,T/C,"dose: 8.0 mg/kg/injection, schedule: Q02DX004 (im), vehicle: saline",27 % of control
same,T/C,"dose: 9.9 mg/kg/injection, schedule: Q01DX011 (ip), vehicle: carboxymethylcellulose (CMC)",8 % of control and 11 % of control
same,T/C,"dose: 12.0 mg/kg/injection, schedule: Q01DX011 (ip), vehicle: carboxymethylcellulose (CMC)",3 % of control
same,T/C,"dose: 15.0 mg/kg/injection, schedule: Q01DX011 (ip), vehicle: saline",1 % of control
same,T/C,"dose: 62.5 micrograms/kg/injection, schedule: Q01DX011 (oral), vehicle: saline",51 % of control
same,T/C,"dose: 125.0 micrograms/kg/injection, schedule: Q01DX011 (oral), vehicle: saline",37 % of control
same,T/C,"dose: 250.0 micrograms/kg/injection, schedule: Q01DX011 (oral), vehicle: saline",72 % of control
same,T/C,"dose: 500.0 micrograms/kg/injection, schedule: Q01DX011 (oral), vehicle: saline",86 % of control
CC[C@H](c1ccc(O)cc1)[C@@H](CC)c1ccc(O)cc1,T/C,"dose: 55.0 mg/kg/injection, schedule: Q01DX011 (sc), vehicle: steriod suspending solution",44 % of control
C=C(Br)CN(C)CCO,T/C,"dose: 50.0 mg/kg/injection, schedule: Q01DX011 (ip), vehicle: other",85 % of control
same,T/C,"dose: 100.0 mg/kg/injection, schedule: Q01DX011 (ip), vehicle: other",76 % of control
same,T/C,"dose: 200.0 mg/kg/injection, schedule: Q01DX011 (ip), vehicle: other",53 % of control
COc1cc2c3c(c4cc(OC)c(OC)cc4c2cc1OC)CN1CCC[C@H]1C3,T/C,"dose: 8.8 mg/kg/injection, schedule: Q01DX006 (ip), vehicle: water",89 % of control and 71 % of control
same,T/C,"dose: 20.0 mg/kg/injection, schedule: Q01DX006 (ip), vehicle: water",50 % of control
CSc1nc(S(C)(=O)=O)ncc1C,T/C,[1],86 % of control
same,T/C,[2],94 % of control
same,T/C,[3],154 % of control
